Laboratory results: paper PMC7985297 (Communications Biology, 2021)
Where “and” joins values, the source holds several entries; their conditions need not be identical. Equal entries are not always repeated.

How the values were obtained:
[1] = Body weight and tolerability in the xenograft study; format: in vivo, mice; details: ATRA 5mg
LN95 cells = assay: Colony formation of LN95 cells; format: cell-based, human; details: LN95, ATRA 5 or 10 µM, EPI-002 25 µM, treated 24 hours then re-plated
Experimental: page 5: Supplementary Figure 5 a b […] (a) Representative images of colonies from LN95 cells after […] EPI-002. After treating with compounds for 24 hours, the media was removed, and 500 -1,000 cells were re-plated in 6-well plates. Colonies were fixed with 4% paraformaldehyde, stained with a 0.1% crystal violet solution, and then imaged. […]

serum PSA = assay: Quantification of serum PSA (ELISA) in xenograft-bearing mice; format: in vivo; details: ATRA compared to placebo; on average; did not reach statistical significance
Experimental: Serum levels for total PSA were measured by a PSA ELISA kit (Anogen, Mississauga, ON) with a lower limit sensitivity of ~1 ng/mL. Whole blood was sampled from the tail vein on days indicated or by cardiac puncture immediately after euthanasia. The serum fraction was separated by centrifugation at 12,000 rpm for 3 min at room temperature and then stored at −20 °C until further analysis. Serum samples were diluted tenfold for the assay and were compared to calibration standards, according to the manufacturer’s protocol. The concentration of total PSA was determined by a VersaMax ELISA microplate reader by measuring absorbance at 450 nm with a reference wavelength of 650 nm.

[2] = test system: Ki-67, PSA and AR in LN95-D3 xenografts; assay: Immunohistochemistry of LN95-D3 xenografts (Ki-67, PSA, AR); format: in vivo, mice
Description: Fig. 8 Immunohistochemistry of LN95-D3 xenografts. a Representative images showing the histomorphology and expression of Ki-67, PSA, and AR from harvested tumors. Scale bars represent 100 µm. Statistical analysis for b the percentage of Ki-67-positive tumor cells and for the expression of c PSA and d AR. Error bars represent the mean ± s.d.
Sections were cut from formalin-fixed, paraffin-embedded tumor tissue at a thickness of 5 µm, deparaffinized in xylene, and then rehydrated in alcohols and distilled water. Endogenous peroxidase was blocked by incubating with a 3% hydrogen peroxide solution for 5 min. […] PSA was detected using a monoclonal mouse anti-human PSA antibody concentrate (ER-PR8; Dako). A negative control without the primary antibody was included for each sample on the same slide. Antigen was detected with 3,3-diaminobenzidine (DAB) and hematoxylin was used for counterstaining. Images were captured on an Axio Imager M2 microscope (Zeiss) at ×200 magnification. The percentage of Ki-67-positive cells was determined with ImageJ using the Cell Counter plugin. At least 1000 cells were scored from three images of representative tumors for each treatment group. The intensity of DAB staining for PSA was quantified by ImageJ using color deconvolution and measuring the mean gray value for the DAB image, where optical density = log(max intensity/mean intensity), and a max intensity of 255 for an 8-bit image.

full-length AR = target: T1, full-length AR (Homo sapiens, UniProt P10275, T878A); assay: Probasin (PB)-luciferase AR-driven reporter assay in LNCaP cells; format: cell-based; details: 24 h, R1881 1 nM
T1 construct: Transcriptional activity of full-length AR was assessed in LNCaP cells; endogenous in cells; host or cells: LNCaP
T1 sequence (P10275 1-920 T878A): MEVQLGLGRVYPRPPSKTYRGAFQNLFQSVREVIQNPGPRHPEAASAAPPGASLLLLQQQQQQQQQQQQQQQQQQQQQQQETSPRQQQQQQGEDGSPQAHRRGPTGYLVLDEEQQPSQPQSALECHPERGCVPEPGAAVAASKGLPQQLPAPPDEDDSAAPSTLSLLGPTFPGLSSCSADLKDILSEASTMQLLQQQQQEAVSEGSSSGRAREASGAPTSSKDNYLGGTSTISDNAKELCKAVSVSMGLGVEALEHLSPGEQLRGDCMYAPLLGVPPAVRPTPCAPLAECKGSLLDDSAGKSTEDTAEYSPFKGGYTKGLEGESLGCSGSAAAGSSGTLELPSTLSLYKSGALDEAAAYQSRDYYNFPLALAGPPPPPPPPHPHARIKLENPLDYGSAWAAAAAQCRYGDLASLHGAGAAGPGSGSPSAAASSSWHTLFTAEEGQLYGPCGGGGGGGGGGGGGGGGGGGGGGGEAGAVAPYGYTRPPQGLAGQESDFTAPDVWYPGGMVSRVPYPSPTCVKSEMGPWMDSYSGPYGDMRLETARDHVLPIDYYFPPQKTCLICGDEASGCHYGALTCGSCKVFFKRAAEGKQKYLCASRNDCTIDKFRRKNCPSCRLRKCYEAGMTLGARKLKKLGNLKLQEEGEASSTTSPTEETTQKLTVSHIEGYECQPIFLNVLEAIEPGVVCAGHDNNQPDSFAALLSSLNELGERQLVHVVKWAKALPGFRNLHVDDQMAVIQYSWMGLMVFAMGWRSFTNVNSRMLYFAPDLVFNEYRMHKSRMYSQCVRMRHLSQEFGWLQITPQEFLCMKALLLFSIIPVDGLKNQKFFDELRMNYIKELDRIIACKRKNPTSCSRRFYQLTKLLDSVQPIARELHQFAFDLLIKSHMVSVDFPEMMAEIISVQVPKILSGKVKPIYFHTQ

[3] = target: T2, AR interaction with STAT3 (Homo sapiens, UniProt P10275, T878A); assay: Co-immunoprecipitation of AR with STAT3 from LNCaP cells; format: cell-based; details: juglone 30 μM, IL-6 50 ng/mL, 6 h
T2 construct: Endogenous STAT3 complexes were co-immunoprecipitated from LNCaP cells treated with juglone and IL-6; endogenous in cells; host or cells: LNCaP
Experimental: Fig. 3 Pin1 interacts with the AR NTD and regulates transactivation. a, b Transactivation assays performed in LNCaP cells expressing a vector encoding the human AR NTD fused to a Gal4 DNA-binding domain (Gal4-ARN). […] Input samples show Pin1 expression from lysates before the pull-down. i Co-immunoprecipitation assay showing AR protein co-immunoprecipitated with STAT3 from LNCaP cells incubated with EPI-002 (EPI, 35 μM), juglone (JUG, 30 μM), or vehicle (VEH, DMSO), and IL-6 (50 ng/mL) for 6 h. j, k Levels of phosphorylated MAPK (isoforms p44 and p42) and phosphorylated STAT3 (Tyr705 and Ser727) from LNCaP cells pre-treated with juglone (20 µM) and then stimulated with IL-6 (50 ng/mL) for 15 min. Error bars show the mean ± s.e.m. *P < 0.05, **P < 0.01, ***P < 0.001; ns not significant.

SMILES: CC1=C(/C=C/C(C)=C/C=C/C(C)=C/C(=O)O)C(C)(C)CCC1 [ATRA, all-trans retinoic acid]
- Body weight, individual animals (Fig. 7c) ([1]; treatment duration 0 days): 26.7 and 29.9 and 28.1 and 28.2 and 29.3 and 28.3 and 30.2 (2×)
- Body weight, individual animals (Fig. 7c) ([1]; treatment duration 1 days, in g (unit assumed)): 26.8 and 30.1 and 28.1 and 27.9 and 29.3 and 28.7 and 29 and 29.8
- Body weight, individual animals (Fig. 7c) ([1]; treatment duration 2 days): 26.7 and 29.8 and 27.6 (2×) and 28.9 and 28.8 and 29.1 and 29.4
- Body weight, individual animals (Fig. 7c) ([1]; treatment duration 3 days): 25.9 and 29 and 25.6 and 26.8 and 28.1 and 28.3 (2×) and 28.9
- Body weight, individual animals (Fig. 7c) ([1]; treatment duration 4 days, in g (unit assumed)): 25.2 and 28.9 and 27 and 27.1 and 29.1 and 28.5 and 27.5 and 28.7
- Body weight, individual animals (Fig. 7c) ([1]; treatment duration 5 days, in g (unit assumed)): 23.9 and 28.3 and 26.5 and 27 and 28.5 and 28.2 and 26.8 and 27.8
- Body weight, individual animals (Fig. 7c) ([1]; treatment duration 6 days, in g (unit assumed)): 23.9 and 27.9 and 26.1 and 26.5 and 28.2 and 27.4 and 26.8 and 28
- Body weight, individual animals (Fig. 7c) ([1]; treatment duration 7 days): 23.9 and 27.5 (2×) and 25.7 and 26.4 and 28.1 and 26.9 and 27.6
- Body weight, individual animals (Fig. 7c) ([1]; treatment duration 8 days, in g (unit assumed)): 23.1 and 27.9 and 25.6 and 26.6 and 28.2 and 27.4 and 25.9 and 27.6
- Body weight, individual animals (Fig. 7c) ([1]; treatment duration 9 days): 22.3 and 27.6 and 25.3 (2×) and 26.2 and 28.4 and 27.3 and 27.7
- Body weight, individual animals (Fig. 7c) ([1]; treatment duration 10 days): 22.1 and 28.3 and 24.9 and 26.3 (2×) and 27.9 and 25.2 and 27.4
- Body weight, individual animals (Fig. 7c) ([1]; treatment duration 11 days, in g (unit assumed)): 22 and 28 and 24.2 and 26 and 27.8 and 25.3 and 24.7 and 27.2
- Body weight, individual animals (Fig. 7c) ([1]; treatment duration 12 days, in g (unit assumed)): 21.9 and 27.9 and 24.6 and 26.1
- effect on colony formation (LN95 cells): inhibited the ability of LN95 cells to form colonies in a dose-dependent manner
- reduction of PSA expression in sera, pilot study (serum PSA): 27%
- effect on number of Ki-67-positive tumor cells ([2]; LN95-D3 xenografts): decreased the number of Ki-67-positive tumor cells in xenografts
- levels of AR protein in xenografts (IHC) ([2]; LN95-D3 xenografts): decreased slightly
- percentage of Ki-67-positive tumor cells (Fig. 8b) ([2]; LN95-D3 xenografts, ATRA 5 mg pellet, EPI-7170 30 mg/kg/d, one value per tumor, listed as CMC ATRA): 8.32% and 15.81% and 16.91%
- effect on PSA expression in xenografts (IHC) ([2]; compared to the control): decreased

SMILES: O=C1C=CC(=O)c2c(O)cccc21 [juglone]
- remaining activity at 10 µM (full-length AR; inhibitor 10 μM, read-out: PB-luciferase activity normalized to the induction by R1881 (=100) (Fig. 2b)): 22.5%
- IC50 (full-length AR; read-out: IC50, androgen-induced PB-luciferase activity): 6.45 µM
- reduction of the amount of AR interacting with STAT3 [3]: ~ 50%
